Data reported in patent US10335503B2, “Compound that specifically binds to AMPA receptor” (Public University Corporation Yokohama City University, priority 2015, dated 2019).

Columns and labels:
[1] = tested on: AMPA receptors (GluA1 to 3); test: In vivo PET imaging of rat with shRNA against GluA1 to 3 in left striatum, scramble RNA in right striatum; conditions: seven rats, shRNA side vs scramble side of striatum
Experimental: The PET imaging was performed using micro PET (Focus 220; Siemens Medical Solution). PET imaging experiment using a rat: After the rat was allowed to get to sleep by isoflurane (DS Pharma Animal Health Co., Ltd., Japan), anesthesia was maintained at an isoflurane concentration of 1.5% (air 2 L/min), and then the intravenous line was secured from the tail vein by a 24G Surflo indwelling needle (TERUMO CORPORATION, Japan). The rat was fixed to the PET imaging base, and then radiation imaging for checking the position was performed before imaging. Thereafter, 50% DMSO or K-2 dissolved in 50% DMSO was administered by the parenteral route, and after 3 minutes from administration, the radio-labeled K-2 (about 4 MBq) was administered. […]
A summation image was constructed and offset was removed therefrom with a 0.5-mm Hanning filter so as to reconstruct a dynamic image. The reconstructed image was analyzed using PMOD image analysis software (PMOD technologies) by combining VOIs including a plurality of regions of the striatum, the hippocampus, the cerebellum, the brain stem, and the like with a region formed on the template MRI image. The calculation value used in quantitative determination was % SUV (% of standardized uptake value) and obtained by the following formula; % SUV=amount of radiation of each tissue surrounded by VOI (MBq)/administered amount of radiation (MBq)×weight (g) […]

[2] = tested on: AMPA receptor; test: In vivo PET imaging using rat, with blocking by non-radio-labeled K-2
Experimental: (§1) In the LC-MS/MS experiment, all of the synthesized compounds were dissolved in 100% DMSO so as to have a concentration of 2.5 mM, diluted with physiological saline water immediately before administration (PEPA (1.2 pmol/g), M-1 (12 pmol/g), K-2 (12 pmol/g), M-3 (60 pmol/g), and M-2 (240 pmol/g)), and administered by the parenteral route. In the electrophysiological experiment, PEPA and K-2 were dissolved in 100% DMSO so as to have a concentration of 150 mM, diluted with ACSF as a reflux liquid immediately before the experiment so as to have a concentration of 150 μM and then used. […]
The PET imaging was performed using micro PET (Focus 220; Siemens Medical Solution). PET imaging experiment using a rat: After the rat was allowed to get to sleep by isoflurane (DS Pharma Animal Health Co., Ltd., Japan), anesthesia was maintained at an isoflurane concentration of 1.5% (air 2 L/min), and then the intravenous line was secured from the tail vein by a 24G Surflo indwelling needle (TERUMO CORPORATION, Japan). The rat was fixed to the PET imaging base, and then radiation imaging for checking the position was performed before imaging. Thereafter, 50% DMSO or K-2 dissolved in 50% DMSO was administered by the parenteral route, and after 3 minutes from administration, the radio-labeled K-2 (about 4 MBq) was administered. During the PET imaging, the body temperature was maintained to 37±0.5° C. using a feedback type heating plate (BWT-100A; Bio Research Center, Japan). After the imaging, the intravenous line was removed, the administration of isoflurane was stopped, and then the rat was removed from the PET imaging base and returned to the home cage. The rat was raised in the room in which imaging was performed during 1 week after the imaging, and then the rat was returned to the normal rat group rearing room.
A summation image was constructed and offset was removed therefrom with a 0.5-mm Hanning filter so as to reconstruct a dynamic image. The reconstructed image was analyzed using PMOD image analysis software (PMOD technologies) by combining VOIs including a plurality of regions of the striatum, the hippocampus, the cerebellum, the brain stem, and the like with a region formed on the template MRI image. The calculation value used in quantitative determination was % SUV (% of standardized uptake value) and obtained by the following formula; % SUV=amount of radiation of each tissue surrounded by VOI (MBq)/administered amount of radiation (MBq)×weight (g)

[3] = tested on: AMPA receptor; test: Electrophysiological experiment: AMPA current by whole-cell recording in acute hippocampus section; format: cell-based, rat; conditions: 150 μM in ACSF for 15 minutes, CA1 pyramidal cell, ground state converted as 1
Experimental: as §1
A 7- to 8-week-old male SD rat was used. […] The section was left to stand still in ACSF at room temperature for 60 minutes, and then the AMPA current was measured by a whole-cell recording method. 100 μM of picrotoxin and 100 μM of DL-APV were administered under the condition that the ACSF was refluxed at a rate of 3 ml/min, and then only the AMPA current was isolated and measured.
The recording electrode was placed on a pyramidal cell in CA1, and the exciting electrode was placed on the Schaffer fiber separated away from the recording cell by 100 to 200 μm. […] The AMPA current in the ground state was recorded for 5 minutes, reflux was thereafter performed using ACSF added with PEPA or K-2 for 15 minutes, and then the AMPA current was recorded in the reflux liquid not containing PEPA or K-2 for 30 minutes. […]

[4] = LC-MS/MS experiment: accumulation of compound in hippocampal tissue; format: in vivo; conditions: rat, 15 minutes from administration, compared among five compounds (FIG. 1)
Experimental: as §1
The LC-MS/MS experiment and the biochemical experiment were performed after a rat was allowed to get to sleep by inhalation of isoflurane while anesthesia was maintained using a dedicate carburetor at a concentration of 1.5%. […] In the LC-MS/MS experiment, the hippocampus region was collected in a thickness of approximately 2 mm from the extracted whole brain using Brain matrix (ASI instruments, U.S.), the tissue weight thereof was measured, and then the hippocampus region was put into a 1.5-ml conical tube. […]
As for the preliminary reviewing of measurement conditions, an optimal dilution solvent and an optimal dilution magnification for each compound were determined using the hippocampal tissue (Table 4). […]

Row | Structure (SMILES) | decrease in the PET image value at the shRNA side [1] | BPnd (estimated binding potential) ([2]; Logan Plot method, blocking using the non-radio-labeled K-2, striatum and hippocampus) | uptake of the brain stem ([2]; blocking by non-radio-labeled K-2) | degree of loss of specific binding after blocking ([2]; prior administration of 0.05 mg/kg of non-radio-labeled K-2, compared to 0.5 mg/kg) | specific accumulation of radio-labeled K-2 after blocking ([2]; prior administration of 0.5 mg/kg of non-radio-labeled K-2, 3 minutes before) | brain uptake ([2]; rat, PET, about 4 MBq) | ratio of AMPA current to reference value [3] | accumulation of compound in hippocampal tissue [4]
1 | [11CH3]N(CCSc1cc(F)c(OCC(N)=O)c(F)c1)S(=O)(=O)c1ccccc1 [Radio-labeled K-2, {4-[2-(Benzenesulfonyl-[^11C]Methyl-Amino)-Ethylsulfanil]-2,6-Difluoro-Phenoxy}-Acetamide] | about 30% | significantly lowered | not changed by blocking | small | lost | extremely high brain uptake |  | 
2 | NC(=O)COc1c(F)cc(SCCNS(=O)(=O)c2ccccc2)cc1F [PEPA, 2-[2,6-Difluoro-4-({2-[(phenylsulfonyl)amino]ethyl}thio)phenoxy]acetamide, reference compound] |  |  |  |  |  |  | 2.4±0.13 | highest
